The values below come from patent US20210179578A1, “OX1 ANTAGONISTS” (Heptares Therapeutics Limited, priority 2017, published 2021).

Molecules are shown by their SMILES.

One assay concerns the target T1, human OX1 receptor (Homo sapiens, UniProt O43613).
T1 sequence (O43613 1-425): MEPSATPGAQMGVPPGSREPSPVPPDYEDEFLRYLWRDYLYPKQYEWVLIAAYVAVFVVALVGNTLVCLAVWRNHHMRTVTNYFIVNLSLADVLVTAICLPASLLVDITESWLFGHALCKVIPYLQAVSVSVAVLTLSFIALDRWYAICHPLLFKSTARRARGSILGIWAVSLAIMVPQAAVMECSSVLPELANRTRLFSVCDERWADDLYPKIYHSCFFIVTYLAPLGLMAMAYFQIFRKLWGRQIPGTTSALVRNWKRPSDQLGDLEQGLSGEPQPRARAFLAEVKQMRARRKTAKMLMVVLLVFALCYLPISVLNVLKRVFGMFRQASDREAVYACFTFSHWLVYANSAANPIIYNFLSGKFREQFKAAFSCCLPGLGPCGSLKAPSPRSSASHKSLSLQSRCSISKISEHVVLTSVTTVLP
The experiment in a line: IPone accumulation assay, CHO cells expressing OX1 (antagonism of orexin A). The assay is classed as cell-based. To be noted: IPone accumulation, CHO human OX1, orexin A EC80 challenge (~20 nM); read-out: fpKb average OX1 (converted). The method, then: Generation of CHO stable cell lines expressing the human OX1R and OX2R. Stable cell lines for the human OX1R and OX2R receptors were generated through the transfection of CHO cells using the transfection reagent Genejuice (Novagen number 70967) and cDNA coding for either the human OX1R or OX2R. Cells were cultured in Sigma Nutrient Mixture F-12 Ham media (catalog number N6658) supplemented with 10% heat-inactivated FBS. Forty-eight hours after transfection, cells were harvested and placed under geneticin selection by culturing in Sigma Nutrient Mixture F-12 Ham media supplemented with 10% heat-inactivated FBS and geneticin (ThermoFisher Catalog number: 10131035). Selection of the final stable clone for each receptor was made on the basis of receptor expression, assay signal to noise and robustness though increasing passage. Selected clones for the human OX1R and OX2R were then frozen down into liquid nitrogen using Cell Freezing Medium-DMSO (Sigma-Aldrich catalog number: C6164). IPone accumulation assay. A CHO cell line stably expressing either human OX1 or OX2 receptor was used with the IPone HTRF assay kit (CisBio: Part #62[…]) to measure receptor activation. The assay was optimised to measure the ability (potency; fpKb) of antagonists to reduce agonist (orexin A)-induced inositol phosphate turnover. Briefly, cells were plated onto half area 96-well white walled plates at a density of 12,500 cells/well. Sixteen hours post-plating cell growth media was replaced with antagonist concentration-response curve diluted in stimulation buffer (supplied with the kit). Cells were incubated in a humidified incubator (37° C.) for 30 min before an EC80 challenge concentration ( 20 nM (OX1) and 40 nM (OX2)) of orexin A (Tocris catalogue number 1455). After 30 min stimulation in a humidified incubator (37° C.) the assay was terminated by the addition of detection mixture as per manufacturer's instructions. The concentration of compound which reduced orexin-A stimulated turnover of inositol phosphates by 50% (IC50) was calculated by fitting to a four parameter sigmoidal dose response curve. The IC50 values were converted to fpKB values using the orexin A pEC50 value estimated on each plate as well as the challenge concentration interpolated from the orexin A control curve.

The target in a further assay is T2, human OX2 receptor (Homo sapiens, UniProt O43614).
T2 sequence (O43614 1-444): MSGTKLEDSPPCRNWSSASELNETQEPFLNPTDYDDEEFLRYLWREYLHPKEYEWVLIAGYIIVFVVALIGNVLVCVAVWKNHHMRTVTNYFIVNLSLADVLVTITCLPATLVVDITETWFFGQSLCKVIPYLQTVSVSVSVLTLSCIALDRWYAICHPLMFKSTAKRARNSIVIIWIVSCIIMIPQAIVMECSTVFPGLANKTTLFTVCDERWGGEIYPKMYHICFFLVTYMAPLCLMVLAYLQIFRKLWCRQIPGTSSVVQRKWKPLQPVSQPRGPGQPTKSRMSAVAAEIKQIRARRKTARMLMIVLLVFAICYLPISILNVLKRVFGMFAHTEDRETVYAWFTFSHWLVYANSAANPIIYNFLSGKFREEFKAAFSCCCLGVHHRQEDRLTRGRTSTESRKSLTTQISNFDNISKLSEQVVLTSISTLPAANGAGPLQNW
Nature of the assay: IPone accumulation assay, CHO cells expressing OX2 (antagonism of orexin A). To be noted: CHO human OX2, orexin A EC80 challenge (40 nM), read-out: fpKb average OX2 (converted). The class given is cell-based. The method, then: Generation of CHO stable cell lines expressing the human OX1R and OX2R. Stable cell lines for the human OX1R and OX2R receptors were generated through the transfection of CHO cells using the transfection reagent Genejuice (Novagen number 70967) and cDNA coding for either the human OX1R or OX2R. Cells were cultured in Sigma Nutrient Mixture F-12 Ham media (catalog number N6658) supplemented with 10% heat-inactivated FBS. Forty-eight hours after transfection, cells were harvested and placed under geneticin selection by culturing in Sigma Nutrient Mixture F-12 Ham media supplemented with 10% heat-inactivated FBS and geneticin (ThermoFisher Catalog number: 10131035). Selection of the final stable clone for each receptor was made on the basis of receptor expression, assay signal to noise and robustness though increasing passage. Selected clones for the human OX1R and OX2R were then frozen down into liquid nitrogen using Cell Freezing Medium-DMSO (Sigma-Aldrich catalog number: C6164).
IPone accumulation assay. A CHO cell line stably expressing either human OX1 or OX2 receptor was used with the IPone HTRF assay kit (CisBio: Part #62IPAPEJ) to measure receptor activation. The assay was optimised to measure the ability (potency; fpKb) of antagonists to reduce agonist (orexin A)-induced inositol phosphate turnover. Briefly, cells were plated onto half area 96-well white walled plates at a density of 12,500 cells/well. Sixteen hours post-plating cell growth media was replaced with antagonist concentration-response curve diluted in stimulation buffer (supplied with the kit). Cells were incubated in a humidified incubator (37° C.) for 30 min before an EC80 challenge concentration (˜20 nM (OX1) and 40 nM (OX2)) of orexin A (Tocris catalogue number 1455). After 30 min stimulation in a humidified incubator (37° C.) the assay was terminated by the addition of detection mixture as per manufacturer's instructions. The concentration of compound which reduced orexin-A stimulated turnover of inositol phosphates by 50% (IC50) was calculated by fitting to a four parameter sigmoidal dose response curve. The IC50 values were converted to fpKB values using the orexin A pEC50 value estimated on each plate as well as the challenge concentration interpolated from the orexin A control curve.

In the case of `COc1ncc(C2CCc3c(F)cccc3N(Cc3c(F)cc(Br)cc3F)C2=O)cc1S(C)(=O)=O` (racemic) [Example 19, 1-(4-bromo-2,6-difluorobenzyl)-6-fluoro-3-[6-methoxy-5-(methylsulfonyl)pyridin-3-yl]-1,3,4,5-tetrahydro-2H-1-benzazepin-2-one], the Kb is 0.0316 µM on human OX1 receptor and greater than 3.16 µM on human OX2 receptor.
For `COc1ncc(C2CCc3c(F)cccc3N(Cc3c(F)cc(Br)cc3F)C2=O)cc1C(C)(F)F` (single isomer, unassigned) [Example 12, 1-(4-bromo-2,6-difluorobenzyl)-3-[5-(1,1-difluoroethyl)-6-methoxypyridin-3-yl]-6-fluoro-1,3,4,5-tetrahydro-2H-1-benzazepin-2-one], in that order: 0.0126 µM and greater than 1 µM.
As to `COc1ncc(C2CCc3c(F)cccc3N(Cc3cc(C#N)ccc3F)C2=O)cc1C(C)(F)F` (single isomer, unassigned) [Example 13, 3-({3-[5-(1,1-difluoroethyl)-6-methoxypyridin-3-yl]-6-fluoro-2-oxo-2,3,4,5-tetrahydro-1H-1-benzazepin-1-yl}methyl)-4-fluorobenzonitrile], the figures for the Kb on human OX1 receptor and on human OX2 receptor were 0.0501 µM and greater than 0.794 µM, respectively.
For `COc1ncc(C2CCc3c(F)cccc3N(Cc3c(F)cc(Br)cc3F)C2=O)cc1S(C)(=O)=O` (single isomer, unassigned) [Example 21, 1-(4-bromo-2,6-difluorobenzyl)-6-fluoro-3-[6-methoxy-5-(methylsulfonyl)pyridin-3-yl]-1,3,4,5-tetrahydro-2H-1-benzazepin-2-one], in that order: 0.01 µM and greater than 1.58 µM.
`COc1ncc(C2CCc3c(F)cccc3N(Cc3c(F)cc(Cl)cc3F)C2=O)cc1S(C)(=O)=O` (single isomer, unassigned) [Example 22, 1-(4-chloro-2,6-difluorobenzyl)-6-fluoro-3-[6-methoxy-5-(methylsulfonyl)pyridin-3-yl]-1,3,4,5-tetrahydro-2H-1-benzazepin-2-one]: the Kb at human OX1 receptor is 0.01 µM; on human OX2 receptor it was greater than 1 µM.
The matching figures for `Cc1ncc(C2CCc3c(F)cccc3N(Cc3c(F)cc(Br)cc3F)C2=O)cc1C(C)(F)F` (single isomer, unassigned) [Example 35, 1-(4-bromo-2,6-difluorobenzyl)-3-[5-(1,1-difluoroethyl)-6-methylpyridin-3-yl]-6-fluoro-1,3,4,5-tetrahydro-2H-1-benzazepin-2-one]: 0.0631 µM and greater than 2.51 µM.
The matching figures for `Cc1ncc(C2CCc3c(F)cccc3N(Cc3c(F)cc(Br)cc3F)C2=O)cc1C(C)(F)F` (single isomer, unassigned) [Example 36, 1-(4-bromo-2,6-difluorobenzyl)-3-[5-(1,1-difluoroethyl)-6-methylpyridin-3-yl]-6-fluoro-1,3,4,5-tetrahydro-2H-1-benzazepin-2-one]: 0.02 µM and greater than 2 µM.
The matching figures for `Cc1ncc(C2CCc3c(F)cccc3N(Cc3c(F)cc(Br)cc3F)C2=O)cc1S(C)(=O)=O` (single isomer, unassigned) [Example 38, 1-(4-bromo-2,6-difluorobenzyl)-6-fluoro-3-[6-methyl-5-(methylsulfonyl)pyridin-3-yl]-1,3,4,5-tetrahydro-2H-1-benzazepin-2-one]: 0.02 µM and greater than 0.398 µM.
On to `Cc1ncc(C2CCc3c(F)cccc3N(Cc3c(F)cc(Br)cc3F)C2=O)cc1S(C)(=O)=O` (single isomer, unassigned) [Example 39, 1-(4-bromo-2,6-difluorobenzyl)-6-fluoro-3-[6-methyl-5-(methylsulfonyl)pyridin-3-yl]-1,3,4,5-tetrahydro-2H-1-benzazepin-2-one], for which the Kb is 0.0316 µM at human OX1 receptor and greater than 2.51 µM at human OX2 receptor.
For `Cc1ccc(N2CCc3c(F)cccc3N(Cc3c(F)cc(Br)cc3F)C2=O)cc1C(C)(F)F` [Example 1, 1-(4-bromo-2,6-difluorobenzyl)-3-[3-(1,1-difluoroethyl)-4-methylphenyl]-6-fluoro-1,3,4,5-tetrahydro-2H-1,3-benzodiazepin-2-one], the figures for the Kb on human OX1 receptor and on human OX2 receptor were 0.158 µM and greater than 3.16 µM, respectively.
Turning to `[2H]C([2H])([2H])Oc1ncc(N2CCc3c(F)cccc3N(Cc3c(F)cc(Br)cc3F)C2=O)cc1C(C)(F)F` [Example 2, 1-(4-bromo-2,6-difluorobenzyl)-3-{5-(1,1-difluoroethyl)-6-[(^2H3)methyloxy]pyridin-3-yl}-6-fluoro-1,3,4,5-tetrahydro-2H-1,3-benzodiazepin-2-one], the Kb is 0.02 µM at human OX1 receptor and greater than 3.98 µM at human OX2 receptor.
The matching figures for `COc1ncc(N2CCc3c(F)cccc3N(Cc3c(F)cc(Br)cc3F)C2=O)cc1C(C)(F)F` [Example 3, 1-(4-bromo-2,6-difluorobenzyl)-3-[5-(1,1-difluoroethyl)-6-methoxypyridin-3-yl]-6-fluoro-1,3,4,5-tetrahydro-2H-1,3-benzodiazepin-2-one]: 0.0501 µM and greater than 0.794 µM.
The matching figures for `COc1ccc(CN2C(=O)N(c3cnc(OC)c(C(C)(F)F)c3)CCc3c(F)cccc32)c(F)c1` [Example 4, 3-[5-(1,1-difluoroethyl)-6-methoxypyridin-3-yl]-6-fluoro-1-(2-fluoro-4-methoxybenzyl)-1,3,4,5-tetrahydro-2H-1,3-benzodiazepin-2-one]: 0.0158 µM and greater than 3.98 µM.
For `[2H]C([2H])([2H])OCc1cc(F)c(CN2C(=O)N(c3cnc(OC)c(C(C)(F)F)c3)CCc3c(F)cccc32)c(F)c1` [Example 5, 3-[5-(1,1-difluoroethyl)-6-methoxypyridin-3-yl]-1-(2,6-difluoro-4-{[(^2H3)methyloxy]methyl}benzyl)-6-fluoro-1,3,4,5-tetrahydro-2H-1,3-benzodiazepin-2-one], in that order: 0.00158 µM and greater than 2 µM.
